According to publication PMC12144414 (iScience, 2025):
Peptide text beside a SMILES is read from it.

What was measured:
Human recombinant GAPDH = Human recombinant GAPDH (Homo sapiens, UniProt P04406); experiment: GAI peptide inhibition of GAPDH aggregation; format: biochemical; conditions: read-out: Potency: Aggregation inhibitory activity (%); SD
[1] = Physiological parameters during ischemia/reperfusion; format: in vivo, mouse; conditions: 60 nmol GAI-17, during ischemia-reperfusion
[2] = Regional cerebral blood flow; format: in vivo, mouse; conditions: 60 nmol GAI-17, during ischemia-reperfusion; n = 4
[3] = Levels of pyruvate in the brain; format: in vivo, mouse; conditions: GAI-17 treatment; data not shown
[4] = Stability in mouse blood serum; format: in vitro ADME; conditions: prediction: endopeptidase cleavage upon peripheral injection; not tested
[5] = system: mouse model of AIS induced by transient MCAO; conditions: in vivo
mouse GAPDH = mouse GAPDH (Mus musculus, UniProt P16858); experiment: In vitro GAPDH aggregation assay with C152A-GAPDH; format: biochemical; conditions: mouse GAPDH 0.3 mg/ml + C152A-GAPDH 0-0.75 mg/ml, 37°C 24 h, A405; n = 3
mouse GAPDH, sequence (P16858 whole entry): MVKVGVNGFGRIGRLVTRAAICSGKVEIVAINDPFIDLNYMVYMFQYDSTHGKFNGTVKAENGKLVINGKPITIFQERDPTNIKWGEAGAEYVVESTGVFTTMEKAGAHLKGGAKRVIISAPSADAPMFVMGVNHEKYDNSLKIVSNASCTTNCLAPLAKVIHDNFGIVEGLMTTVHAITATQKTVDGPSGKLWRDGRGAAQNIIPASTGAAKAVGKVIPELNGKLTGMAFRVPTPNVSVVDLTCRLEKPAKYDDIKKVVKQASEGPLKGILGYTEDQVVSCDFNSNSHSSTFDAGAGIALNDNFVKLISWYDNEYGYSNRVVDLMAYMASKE

Human recombinant GAPDH, sequence (P04406 whole entry, the tested form may be a part): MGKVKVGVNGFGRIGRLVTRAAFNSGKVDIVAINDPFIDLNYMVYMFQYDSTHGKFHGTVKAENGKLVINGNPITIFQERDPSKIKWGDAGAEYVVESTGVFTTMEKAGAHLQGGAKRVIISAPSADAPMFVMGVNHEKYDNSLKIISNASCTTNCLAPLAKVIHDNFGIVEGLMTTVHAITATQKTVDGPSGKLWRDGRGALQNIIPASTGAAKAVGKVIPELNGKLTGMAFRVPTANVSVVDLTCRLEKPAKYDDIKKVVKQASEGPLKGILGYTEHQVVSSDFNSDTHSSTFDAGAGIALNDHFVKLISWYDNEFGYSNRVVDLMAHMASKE

C[C@@H](O)[C@H](NC(=O)[C@H](CS)NC(=O)[C@@H](N)CO)C(=O)O [GAI-17] (H-Ser-Cys-Thr-OH)
inhibition (Human recombinant GAPDH): 97.2 ± 1.88%
Physiological parameters (MBP, HR, blood PaO2, PaCO2, pH, RT) [1]: no changes
Cerebral blood flow [2]: no changes
Levels of pyruvate in the brain [3]: did not affect
Stability in mouse blood serum [4]: predicted to be unstable

C#CCN(C)[C@H](C)Cc1ccccc1 [deprenyl]
Development of brain infarction caused by MCAO (infarct volume in whole brain) [5]: no significant effect

human GAPDH-C152A: His-tagged recombinant human GAPDH mutant with Cys-152 substituted to alanine, dominant-negative for aggregation
Inhibitory effect on mouse GAPDH aggregation in vitro (mouse GAPDH): confirmed in vitro
